The record followed here is patent US20030129189A1, “Tumor necrosis factor-gamma” (priority 1994, published 2003).

For test [1], the system named is chorioallantoic membrane (CAM). Put plainly: Chicken embryonic chorioallantoic membrane (CAM) angiogenesis assay. The conditions noted are these: 250 ng bacterially-produced TNF-gamma mixed with FGF-2 (100 ng) or VEGF (250 ng). Format: in vivo. Here is the method: The CAM assay was carried out essentially as described by Nguyen and colleagues (Microvasc. Res. 47:31-40 (1994)) and Iruela-Arispe and Dvorak (Thromb. Haemost. 78:672-677 (1997)). The method is based on the growth of new capillary vessels into a collagen gel pellet placed directly on the chorioallantoic membrane (CAM). Angiogenic factors such as […], FGF-2 (100 ng), VEGF (250 ng), or bFGF (10, 500, and 1000 ng) were embedded in collagen gel pellets and placed in contact with the CAM. Quantification of angiogenesis in the gels was carried out 24 hours after the placement of the gel pellets by using a Nikon fluorescence microscope. The images were transferred to a Power PC 100 AV, using a CCD Sony camera. Fluorescence intensity was evaluated with NH Image 1.61 software. Fluorescence intensity for the positive controls (which contained an angiogenic factor alone) was considered as the maximum angiogenic response, and set, arbitrarily, at 100. Due to the variability of the assay, inhibition greater than 20% was considered significant.
As an experimental determination of the effect of TNF-gamma on the FGF-2- or VEGF-induced angiogenesis, bacterially-produced TNF-gamma (250 ng) was mixed with either FGF-2 (100 ng) or VEGF (250 ng) and embedded in collagen gel pellets. The pellets were then placed in contact with the CAM as described above.

Test [2] relates to WEHI 164. Put plainly: TNF-gamma activity on WEHI 164 cells (MTS cytotoxicity/proliferation, morphology). Format: cell-based, mouse. Also on record: key to Proliferation / Differentiation / Adhesion: The numbers of “+” indicate the relative level of activities.; ++: The numbers of “+” indicate the relative level of activities.; +++: The numbers of “+” indicate the relative level of activities.; “−” indicates no detected activity at the concentration range tested. Here is the method: The adherent target cells were prepared from confluent cultures by trypsinization in PBS, and non-adherent target cells were harvested from stationary cultures and washed once with medium. Target cells were suspended at 3×10^5 cells/ml in medium containing 10% FCS. 0.1 ml aliquots were dispensed into 96-well flat-bottomed microtiter plates containing 0.1 ml serially diluted test samples of cells (WEHI 164 and L929). Incubation was continued for 70 hours. TNF-alpha, TNF-beta and bacterially-produced TNF-gamma were added at a 0.5 μg/ml concentration. The cytotoxicity and proliferation activity was quantified using an MTS assay performed by the addition of 20 μl of MTS and phenazine methosulfate (PMS) solution to each well. After a three hour incubation, the OD at 492 nm was measured by an ELISA plate reader. The OD492 is proportional to the number of viable cells in the wells. The percent of cytotoxicity was calculated as follows: […]. The photographs were taken after 72 hours.
In the graph of FIG. 7B, the assay was performed as described above, however, increasing amounts of TNF-alpha, TNF-beta and TNF-gamma were added to the cultures.

In test [3] the test system is WEHI 164 cells. Put plainly: Measurement of apoptosis (nucleosome ELISA). It counts as cell-based, mouse. The conditions noted are these: increasing amounts (FIG. 12). How it is done: In a first incubation step, anti-histone antibody was fixed adsorptively on the wall of a microtiter plate module. Subsequently, non-specific binding sites on the wall were saturated by treatment with incubation buffer (e.g., blocking solution). During the second incubation step, the nucleosomes contained in the WEHI 164 cell sample treated with the TNF-alpha, TNF-beta or bacterially-produced TNF-gamma were bound via their histone components to the immobilized anti-histone antibody. In the third incubation step, anti-DNA-peroxidase (POD) reacted with the DNA component of the nucleosomes. After removal of all unbound peroxidase conjugate by a washing step, the amount of peroxidase retained in the immunocomplex was determined spectrophotometrically using the substrate ABTS (2,2′-azino-di-[3-ethylbenzthiazoline sulfonate]). Anti-histone antibody reacted with the histones H1, H2A, H2B, H3, and H4 from the sample. Anti-DNA POD antibody bound to single- and double-stranded DNA. Therefore, the ELISA allowed the detection of mono- and oligonucleosomes and may be applied to measure apoptotic cell death. The level of cell death was measured by the amount of cytoplasmic histone-associated DNA fragments which was indicated by the ratio of the absorbances observed at 405 and 490 nm (A405/A490). […]

Test [4] deals with T1, TNFR2 on transiently transfected cells (UniProt P20333 23-461, limits assumed).
T1 construct: whole, on cells
T1 sequence (looked up): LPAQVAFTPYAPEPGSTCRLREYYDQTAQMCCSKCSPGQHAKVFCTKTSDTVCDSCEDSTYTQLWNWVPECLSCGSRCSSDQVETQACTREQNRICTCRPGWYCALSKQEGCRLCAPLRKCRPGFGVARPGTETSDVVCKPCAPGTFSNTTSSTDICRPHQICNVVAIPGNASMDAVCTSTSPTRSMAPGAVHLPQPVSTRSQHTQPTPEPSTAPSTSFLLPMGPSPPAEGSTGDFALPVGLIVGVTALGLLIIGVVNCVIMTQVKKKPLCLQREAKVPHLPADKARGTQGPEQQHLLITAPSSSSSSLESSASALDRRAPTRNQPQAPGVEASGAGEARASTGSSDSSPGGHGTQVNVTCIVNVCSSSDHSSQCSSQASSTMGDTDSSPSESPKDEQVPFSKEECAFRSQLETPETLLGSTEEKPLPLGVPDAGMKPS
Kind of test: flow cytometry on transiently transfected cells. How it is done:
(§1) One million cells, in 0.1 ml of FACS buffer (PBS, 0.1% BSA, 0.1% NaN₃), were incubated with 0.1-1 microgram of protein or antibody at RT for 15 min. The cells were washed with 3 ml of FACS buffer, reacted with biotinylated primary antibody, and stained with PE-conjugated secondary antibody at RT for 15 min. Cells were then washed again, resuspended in 0.5 microgram/ml of propidium iodide, and live cells were gated and analyzed on a FACScan using the CellQuest software (BD Biosciences).
A general note: Flow cytometry measures light scatter and fluorescence of single cells or particles in a stream.

For test [5], the target named is T2, CD27 on transiently transfected cells (UniProt P26842 20-260, limits assumed).
T2 construct: whole, on cells
T2 sequence (looked up): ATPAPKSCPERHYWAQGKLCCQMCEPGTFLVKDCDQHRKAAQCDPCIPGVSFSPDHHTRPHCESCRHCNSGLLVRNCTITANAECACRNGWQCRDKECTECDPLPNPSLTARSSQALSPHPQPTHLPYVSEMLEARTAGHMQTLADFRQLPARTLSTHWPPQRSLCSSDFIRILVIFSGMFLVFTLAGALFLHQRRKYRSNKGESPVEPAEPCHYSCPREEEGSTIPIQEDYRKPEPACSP
Kind of test: flow cytometry on transiently transfected cells. Here is the method: as §1

Take “TNF-gamma: new member of the tumor necrosis factor family; the term refers to TNF-gamma-alpha and/or TNF-gamma-beta”: the “new capillary growth into collagen gels (FGF-2- or VEGF-induced angiogenesis)” value in test [1] was “markedly inhibited new capillary growth into collagen gels”. Besides, the “inhibition of WEHI 164 cell growth” value in test [2] (MTS assay, increasing amounts added (FIG. 7B)) was “dose-dependent inhibitor of the growth”. Also, the “morphology change (killed cells)” value in test [2] (WEHI 164, 0.5 μg/ml, photographs after 72 hours (FIG. 7A)) is “induced a morphology change which appeared as dark round cells (indicating killed cells)”. Moreover, in test [2] (WEHI 164, mouse fibrosarcoma), the Adhesion result is on record as “−−”, the Differentiation result is on record as “−−” and the Proliferation entry is reported as “−”. Moreover, in test [3], the “apoptosis (cytoplasmic histone-associated DNA fragments, A405/A490)” value is on record as “increasingly high levels of apoptosis”.

B1: FLAG-tagged soluble TNF-gamma-beta (aa 72-251) (ligand)
chain: LKGQEFAPSHQQVYAPLRADGDKPRAHLTVVRQTPTQHFKNQFPALHWEHELGLAFTKNRMNYTNKFLLIPESGDYFIYSQVTFRGMTSECSEIRQAGRPNKPDSITVVITKVTDSYPEPTQLLMGTKSVCEVGSNWFQPIYLGAMFSLQEGDKLMVNVSDISLVDYTKEDKTFFGAFLL
notes: also called FLAG-TL1β; FLAG-TNF-gamma-beta; not shown: The N-terminal FLAG tag (pFLAG-CMV-1 vector) and any vector linker
On to B1, for which the binding result in test [4] and in test [5] was “no binding” in each case.
